Experimental data published in patent publication US6211244A, “Calcium receptor-active compounds” (priority 1995, dated 2001).

Target: T1, human calcium receptor (Homo sapiens, UniProt P41180, R990G)
T1 construct: expressed in transfected cells; host or cells: HEK 293
T1 sequence (P41180 20-1078 R990G): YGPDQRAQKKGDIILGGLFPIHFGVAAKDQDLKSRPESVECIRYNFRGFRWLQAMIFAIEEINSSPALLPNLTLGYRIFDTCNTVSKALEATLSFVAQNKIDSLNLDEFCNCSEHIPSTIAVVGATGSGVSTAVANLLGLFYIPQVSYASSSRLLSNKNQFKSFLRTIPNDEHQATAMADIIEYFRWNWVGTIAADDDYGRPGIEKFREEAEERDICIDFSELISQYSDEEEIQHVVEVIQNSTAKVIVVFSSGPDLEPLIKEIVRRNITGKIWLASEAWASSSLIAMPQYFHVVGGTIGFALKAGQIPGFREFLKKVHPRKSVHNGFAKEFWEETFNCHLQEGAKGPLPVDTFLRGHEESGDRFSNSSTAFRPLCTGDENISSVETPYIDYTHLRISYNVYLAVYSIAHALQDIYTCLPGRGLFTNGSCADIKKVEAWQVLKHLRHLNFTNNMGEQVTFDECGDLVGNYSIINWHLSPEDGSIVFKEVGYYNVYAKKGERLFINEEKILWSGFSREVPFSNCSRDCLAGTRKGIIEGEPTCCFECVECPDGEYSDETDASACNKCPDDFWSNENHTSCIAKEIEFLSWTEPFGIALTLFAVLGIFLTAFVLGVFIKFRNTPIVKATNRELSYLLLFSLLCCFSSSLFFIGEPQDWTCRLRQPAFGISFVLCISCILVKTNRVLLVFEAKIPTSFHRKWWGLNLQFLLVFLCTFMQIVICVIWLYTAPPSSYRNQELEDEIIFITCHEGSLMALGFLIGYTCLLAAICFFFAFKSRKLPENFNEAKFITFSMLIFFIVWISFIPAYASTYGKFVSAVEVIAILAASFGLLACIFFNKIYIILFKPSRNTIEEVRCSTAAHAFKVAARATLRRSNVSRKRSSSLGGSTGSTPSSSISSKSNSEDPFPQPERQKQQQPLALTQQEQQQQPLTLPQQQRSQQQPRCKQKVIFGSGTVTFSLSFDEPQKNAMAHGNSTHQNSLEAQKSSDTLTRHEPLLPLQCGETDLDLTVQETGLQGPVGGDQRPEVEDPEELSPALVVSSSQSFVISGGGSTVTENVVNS
Assay: increases in [Ca^2+ ]i in HEK-293 cells expressing the human calcium receptor (fura-2 loaded HEK 293/pHuPCaR4.0 cells), % activity
Format: cell-based

Structure (SMILES)	% activity (33 ng/mL)	% activity (330 ng/mL)	% activity (3300 ng/mL)	% activity (330 ng/mL, listed as 4U)
C[C@@H](N[C@H](C)c1cccc2ccccc12)c1ccccc1 [Compound 14O]	102%	119%	119%	–
CC(NC(C)c1cccc2ccccc12)c1ccccc1 (centres unmarked) [Compound 14P]	78%	103%	112%	–
C[C@@H](N[C@H](C)c1cccc2ccccc12)c1cccc(Cl)c1 [Compound 14Q]	78%	101%	–	–
CC(NC(C)c1cccc2ccccc12)c1ccc(Cl)cc1 (centres unmarked) [Compound 14S]	105%	106%	116%	–
COc1cccc(C(C)NC(C)c2cccc3ccccc23)c1 (centres unmarked) [Compound 14Z]	82%	103%	118%	–
COc1cccc(CCNC(C)c2cccc3ccccc23)c1 (centres unmarked) [Compound 15I]	75%	93%	111%	–
COc1ccc(CCNC(C)c2cccc3ccccc23)cc1 (centres unmarked) [Compound 15J]	64%	75%	80%	–
COc1ccccc1CCCN[C@H](C)c1cccc2ccccc12 [Compound 16I]	96%	117%	121%	–
COc1ccc(C(C)NC(C)c2cccc3ccccc23)cc1 (centres unmarked) [Compound 16J]	47%	76%	92%	–
COc1ccc([C@@H](C)N[C@H](C)c2cccc(OC)c2)cc1 [Compound 16L, (R,R)-N-[1-(4-methoxyphenyl)ethyl]-1-(3-methoxyphenyl)ethylamine]	98%	138%	146%	–
COc1ccc([C@@H](C)N[C@@H](C)c2cccc(OC)c2)cc1 [Compound 16M, (S,R)-N-[1-(4-methoxyphenyl)ethyl]-1-(3-methoxyphenyl)ethylamine]	11%	68%	130%	–
COc1cccc(C(C)NC(C)c2cccc(OC)c2)c1 (centres unmarked) [Compound 16N]	82%	159%	122%	–
COc1cccc(C(C)NC(C)c2cccc(OC)c2)c1 (centres unmarked) [Compound 16O]	21%	81%	129%	–
C[C@@H](NCc1ccc2c(c1)OCO2)c1cccc2ccccc12 [Compound 16R]	76%	100%	–	–
COc1cc(C)c(CN[C@H](C)c2cccc3ccccc23)cc1C [Compound 16U]	50%	85%	–	–
CCOc1ccc(CN[C@H](C)c2cccc3ccccc23)cc1 [Compound 16W]	73%	102%	–	–
C[C@@H](NCc1ccc(C#N)cc1)c1cccc2ccccc12 [Compound 16Z]	51%	88%	–	–
CC(=O)c1ccc(CN[C@H](C)c2cccc3ccccc23)cc1 [Compound 17C]	99%	120%	113%	–
C[C@@H](NCc1ccc(Br)cc1)c1cccc2ccccc12 [Compound 17D]	91%	108%	–	–
C[C@@H](NCc1ccc(I)cc1)c1cccc2ccccc12 [Compound 17E]	110%	110%	116%	–
C[C@@H](NCc1ccc(C(F)(F)F)cc1)c1cccc2ccccc12 [Compound 17F]	90%	111%	–	–
COc1ccc(C(N[C@H](C)c2cccc3ccccc23)C2CC2)cc1 (some centres unmarked) [Compound 17H]	111%	124%	126%	–
CC(NC(C)c1cccc2ccccc12)c1ccc(Cl)c(Cl)c1 (centres unmarked) [Compound 17J]	122%	118%	116%	–
CC(NC(C)c1cccc2ccccc12)c1ccc(Cl)c(Cl)c1 (centres unmarked) [Compound 17K]	73%	97%	98%	–
COc1ccc(CN[C@H](C)c2cccc3ccccc23)c(C)c1C [Compound 17L]	78%	104%	111%	–

Structure (SMILES)	% activity (33 ng/mL)	% activity (330 ng/mL)	% activity (3300 ng/mL)	% activity (330 ng/mL, listed as 4U)
COc1ccc(CN[C@H](C)c2cccc3ccccc23)cc1Cl.Cl [Compound 17M, N-(3-chloro-4-methoxybenzyl)-(R)-1-(1-naphthyl) ethylamine hydrochloride]	99%	115%	–	–
Cc1ccc([C@@H](C)N[C@H](C)c2cccc3ccccc23)cc1C [Compound 17N]	86%	108%	–	–
COc1cccc([C@@H](C)NCCCc2ccccc2I)c1 [Compound 17R]	65%	98%	–	–
COc1ccc(CNCc2ccccc2OC)cc1C [Compound 17V]	27%	66%	91%	–
Cc1cc(C(C)NC(C)c2cccc3ccccc23)ccc1O (centres unmarked) [Compound 17W]	67%	92%	–	–
COc1ccc(CNCc2cccc3ccccc23)cc1C [Compound 17Y]	79%	94%	109%	–
COc1ccc(CNC(C)c2cccc3ccccc23)cc1C (centres unmarked) [Compound 17Z]	73%	99%	–	–
COc1ccc(CNC(C)c2ccc(F)c3ccccc23)cc1C (centres unmarked) [Compound 18A]	88%	111%	–	–
COc1ccc(CNC(C)c2c(OC)ccc3ccccc23)cc1C (centres unmarked) [Compound 18B]	69%	96%	111%	–
COc1ccc(CNC(C)c2ccc(OC)c3ccccc23)cc1C (centres unmarked) [Compound 18C]	60%	87%	99%	–
COc1ccc(CNC(C)c2cccc(-c3ccccc3)c2)cc1C (centres unmarked) [Compound 18T]	52%	74%	99%	–
C[C@@H](NCCCc1ccccc1Cl)c1cccc(OCC(F)(F)F)c1 [Compound 20Y]	74%	95%	117%	–
COc1cccc([C@@H](C)NC(C)CCc2ccccc2Cl)c1 (some centres unmarked) [Compound 21C = 4U]	–	–	–	72%
COc1cccc([C@@H](C)N[C@@H](C)CCc2ccccc2)c1 [Compound 21E, (S,R)-N-(4-pbenyl-2-butyl)-1-(3-methoxyphenyl)ethylamine]	64%	94%	–	–
COc1cccc([C@@H](C)NCCCc2cccc(OC(F)(F)F)c2)c1 [Compound 21M]	58%	102%	–	–
COc1cccc([C@@H](C)NCCCc2ccc(OC(F)(F)F)cc2)c1 [Compound 21N]	42%	98%	124%	–
COc1cccc([C@@H](C)NCCCc2ccccc2C(F)(F)F)c1 [Compound 21O]	75%	109%	–	–
COc1cccc([C@@H](C)NCCCc2cccc(C(F)(F)F)c2)c1 [Compound 21P]	56%	92%	–	–
COc1cccc([C@@H](C)NCCCc2ccccc2F)c1 [Compound 21R]	66%	100%	–	–
CCCOc1cccc([C@@H](C)NCCCc2ccccc2Cl)c1 [Compound 21S]	85%	131%	132%	–
CC(C)Oc1cccc([C@@H](C)NCCCc2ccccc2Cl)c1 [Compound 21T]	53%	112%	133%	–
C[C@@H](NCCCc1ccccc1Cl)c1cccc(OCC(F)F)c1 [Compound 21V]	99%	116%	122%	–
COc1cccc([C@@H](C)N[C@@H](C)CCc2cccc(C(F)(F)F)c2)c1 [Compound 21X]	51%	101%	119%	–
COc1cccc([C@@H](C)N[C@H](C)CCc2cccc(C(F)(F)F)c2)c1 [Compound 21Y, (R,R)-N-[4-(3-trifluoromethylphenyl)-2-butyl]-1-(3-methoxyphenyl)ethylamine]	68%	100%	–	–
C[C@@H](NCCCc1cccc(C(F)(F)F)c1)c1cccc2ccccc12 [Compound 22J]	71%	99%	–	–
